Test results published in EP3564214B1, “INDAZOLE DERIVATIVES AS MODULATORS OF THE CANNABINOID SYSTEM” (Universita' Degli Studi G. D'annunzio Chieti - Pescara, priority 2018, dated 2019).
Like-named read-outs stand apart in the source and are kept apart here.

Key:
[1] = test system: CB receptor-associated G-proteins; test: Ligand stimulated [35S]GTPγS binding assay in rat brain membrane homogenate; format: biochemical; conditions: for G-protein stimulation (functional character): rat brain membrane homogenate; for Emax (%) ±SEM: specific [35S]GTPγS binding, basal set as 100%; for Emax (%) ±SEM / EC50: rat brain membranes; for EC50: [35S]GTPγS binding
Protocol: (§1) Wistar rats were locally bred and handled according to the European Communities Council Directives (86/609/ECC) and the Hungarian Act for the Protection of Animals in Research (XXVlll.tv. Section 32). Crude membrane fractions were prepared from the brain without cerebellum. Brains were quickly removed from the euthanized rats and directly put in ice-cold 50 mM Tris-HCl buffer (pH 7.4). The collected tissue was then homogenized in 30 volumes (v/w) of ice-cold buffer with a Braun Teflon-glass homogenizer at the highest rpm. The homogenate was centrifuged at 20,000 g for 25 min and the resulting pellet was suspended in the same volume of cold buffer followed by incubation at 37°C for 30 min to remove endogenous ligands. Centrifugation was then repeated. The final pellets were taken up in five volumes of 50 mM Tris-HCl (pH 7.4) buffer containing 0.32 M sucrose and stored at -80°C. Prior to the experiment, aliquots were thawed and centrifuged at 20,000 g for 25 min and the were resuspended in 50 mM Tris-HCl (pH 7.4), homogenized with a Dounce in followed by the determination of the protein concentration by the method of Bradford.
(§2) Rat brain membranes (30 µg protein/tube) prepared as described above, were incubated with 0.05 nM [^35S]GTPγS (PerkinElmer) and 10^-10-10^-5 M unlabeled ligands in the presence of 30 µM GDP, 100 mM NaCl, 3 mM MgCl2 and 1 mM EGTA in 50 mM Tris-HCl buffer (pH 7.4) for 60 min at 30°C. Basal [^35S]GTPγS binding was measured in the absence of ligands and set as 100%. Nonspecific binding was determined by the addition of 10 µM unlabeled GTPγS and subtracted from total binding. Incubation, filtration and radioactivity measurement of the samples were carried out as described above.
(§3) Results are expressed as means ± S.E.M. of at least three independent experiments each performed in duplicate. In competition binding studies, the inhibitory constants (Ki) were calculated from the inflection points of the displacement curves using non-linear least-square curve fitting and the Cheng- Prusoff equation. All data and curves were analyzed by GraphPad Prism 5.0 (San Diego, CA, USA). In [^35S]GTPγS binding studies, data were expressed as the percentage stimulation of the specific [^35S]GTPγS binding over the basal activity and are given as means ± S.E.M. Each experiment was performed in triplicate and analyzed with sigmoid dose-response curve fitting to obtain potency (EC50) and efficacy (Emax) values. Statistical comparison was done by analysis of variance (one-way ANOVA) followed by the Bonferroni multiple comparison test of GraphPad Prism 5.0 (San Diego, CA, USA), P< 0.05 was chosen to indicate significant differences.

[2] = target: T1, CB receptors (Rattus norvegicus, UniProt P20272); test: [3H]WIN55212-2 competition binding in rat brain membrane homogenate; conditions: for displace [3H]WIN55212-2: rat brain membrane homogenate
T1 construct: Crude membrane fractions were prepared from the brain without cerebellum; from tissue; host or cells: Wistar rat brain without cerebellum, crude membrane fraction
T1 sequence (P20272 whole entry): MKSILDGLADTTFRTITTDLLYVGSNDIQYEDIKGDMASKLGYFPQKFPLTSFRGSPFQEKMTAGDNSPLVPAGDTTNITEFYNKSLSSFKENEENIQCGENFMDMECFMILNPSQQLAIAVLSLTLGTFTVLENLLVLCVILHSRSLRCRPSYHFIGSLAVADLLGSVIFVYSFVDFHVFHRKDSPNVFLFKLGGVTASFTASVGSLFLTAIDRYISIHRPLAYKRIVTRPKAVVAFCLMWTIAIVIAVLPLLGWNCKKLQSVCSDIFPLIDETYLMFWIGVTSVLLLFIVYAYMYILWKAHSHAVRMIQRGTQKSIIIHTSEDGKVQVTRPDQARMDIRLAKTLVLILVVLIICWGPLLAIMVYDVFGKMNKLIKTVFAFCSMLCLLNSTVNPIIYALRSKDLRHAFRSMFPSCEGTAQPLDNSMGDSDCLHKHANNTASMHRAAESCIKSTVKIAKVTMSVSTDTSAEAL
Protocol: as §1
Binding experiments were performed at 30 °C for 1 h in 50 mM Tris-HCl buffer pH 7.4 containing 2.5 mM EGTA, 5 mM MgCl2 and 0.5 mg/mL fatty acid free BSA in plastic tubes in a total assay volume of 1 mL that contained 0.3-0.5 mg/mL membrane protein.
Non-specific binding was determined in the presence of 10 µM WIN 55212-2. The incubation was terminated by diluting the samples with ice-cold wash buffer (50 mM Tris-HCl, 2.5 mM EGTA, 5 mM MgCl2, 0.5% fatty acid free BSA, pH 7.4), followed by repeated washing and rapid filtration through Whatman GF/B glass fiber filters (Whatman Ltd, Maidstone, England) presoaked with 0.1% polyethyleneimine (30 min before the filtration). Filtration was performed with a 24-well Brandel Cell Harvester (Gaithersburg, MD, USA). Filters were air-dried and immersed into Ultima Gold MV scintillation cocktail and then radioactivity was measured with a TRI-CARB 2100TR liquid scintillation analyzer (Packard).
as §3

[3] = target: T2, CB1 receptor (Rattus norvegicus, UniProt P20272); test: CB1/CB2 receptor selectivity by [35S]GTPγS binding assay with rimonabant or AM630; format: biochemical; conditions: compound 10 µM; rimonabant 10 µM (CB1) vs AM630 10 µM (CB2)
T2 construct: Crude membrane fractions were prepared from the brain without cerebellum; from tissue; host or cells: Wistar rat brain without cerebellum, crude membrane fraction
T2 sequence (P20272 whole entry): as above
Protocol: Figures represent the specific binding of the radioligand in percentage in the presence of increasing concentrations (10^-10-10^-5 M) of the indicated ligands. "Total" on the x-axis indicates the total specific binding of the radioligand, which is measured in the absence of the unlabeled compounds. […] Figures represent relative specific binding of [^35S]GTPγS in the presence of increasing concentrations (10^-11-10^-5 M) of the indicated compounds. […] The specific binding of [^35S]GTPγS is represented in percentage in the presence or absence of 10 µM rimonabant (CB1 antagonist/inverse agonist) or AM630 (CB2 antagonist/inverse agonist). Data are expressed as percentage of mean specific binding ± S.E.M. (n≥ 3).
as §2
In the next step the compounds were evaluated for CB1/CB2 receptor selectivity by [^35S]GTPγS binding assays. The G-protein stimulatory effect of compounds LONI 1-LONI 9 (10 µM) was reduced by the CB1 receptor antagonist/inverse agonist rimonabant (10 µM) and by the CB2 receptor antagonist/inverse agonist AM630 (10 µM), and a 3-6-fold selectivity for CB1 receptor was observed.

SMILES | G-protein stimulation (functional character) [1] | Emax (%) ±SEM [1] | Ki [2] | EC50 ([1]; read-out: EC50) | selectivity for CB1 receptor [3] | EC50 ([1]; read-out: potency) | displace [3H]WIN55212-2 [2] | Ki ([2]; 1.5 nM [3H]WIN55212-2, rat brain membranes, mean of three independent measurements (S.E.M. 5-12%), read-out: Ki (nM)*)
CC(C)[C@H](NC(=O)c1nn(Cc2ccc(Cl)cc2Cl)c2ccccc12)C(N)=O [LONI 6, (S)-N-(1-amino-3-methyl-1-oxobutan-2-yl)-1-(2,4-dichlorobenzyl)-1H-indazole-3-carboxamide] | partial agonists | 135 ± 4.9% | 17 nM |  |  |  |  | 
CC(C)(C)[C@H](NC(=O)c1nn(Cc2ccc(Cl)cc2Cl)c2ccccc12)C(N)=O [LONI 3, (S)-N-(1-amino-3,3-dimethyl-1-oxobutan-2-yl)-1-(2,4-dichlorobenzyl)-1H-indazole-3 carboxamide] | partial agonists | 139 ± 4.5% | 17 nM | 126 nM | 6 fold |  |  | 
CC(C)(C)[C@H](NC(=O)c1nn(Cc2ccc(Cl)cc2Cl)c2ccccc12)C(=O)O [LONI 1, (S)-2-(1-(2,4-dichlorobenzyl)-1H-indazole-3-carboxamido)-3,3-dimethylbutanoic acid] | weak inverse agonist activity | 84 ± 6.6% | 0.08 nM | 2800 nM |  | 1800 to 3200 nM |  | 
CC(C)C[C@H](NC(=O)c1nn(Cc2ccc(Cl)cc2Cl)c2ccccc12)C(N)=O [LONI 9, (S)-N-(1-amino-4-methyl-1-oxopentan-2-yl)-1-(2,4-dichlorobenzyl)-1H-indazole-3-carboxamide] | partial agonists | 120 ± 5.9% | 88 nM |  | 6 fold |  |  | 
CC(C)C[C@H](NC(=O)c1nn(Cc2ccc(Cl)cc2Cl)c2ccccc12)C(=O)O [LONI 7, (S)-2-(1-(2,4-dichlorobenzyl)-1H-indazole-3-carboxamido)-4-methylpentanoic acid] | weak inverse agonist activity | 86 ± 9.3% | 43 nM | 1870 nM |  | 1800 to 3200 nM |  | 
COC(=O)[C@@H](NC(=O)c1nn(Cc2ccc(Cl)cc2Cl)c2ccccc12)C(C)(C)C [LONI 2, (S)-methyl 2-(1-(2,4-dichlorobenzyl)-1H-indazole-3-carboxamido)-3,3-dimethylbutanoate] |  | 143 ±5.7% | 3.1 nM | 8.4 nM |  |  |  | 
CC(C)[C@H](NC(=O)c1nn(Cc2ccc(Cl)cc2Cl)c2ccccc12)C(=O)O [LONI 4, (S)-2-(1-(2,4-dichlorobenzyl)-1H-indazole-3-carboxamido)-3-methylbutanoic aci] | weak inverse agonist activity | 82 ± 10.6% | 2.6 nM | 3290 nM | 3 fold | 1800 to 3200 nM |  | 
COC(=O)[C@H](CC(C)C)NC(=O)c1nn(Cc2ccc(Cl)cc2Cl)c2ccccc12 [LONI 8, (S)-methyl 2-(1-(2,4-dichlorobenzyl)-1H-indazole-3-carboxamido)-4-methylpentanoate] |  | 122 ± 4.6% | 63 nM |  |  |  |  | 
COC(=O)c1nn(Cc2ccc(Cl)cc2Cl)c2ccccc12 [LONI C, reference compound] | weak inverse agonist | 69 ± 2.6% |  | 3160 nM |  |  | neither LONI A nor its derivatives LONI B and LONI C could displace [^3H]WIN55212-2 | 
O=C(O)c1nn(Cc2ccc(Cl)cc2Cl)c2ccccc12 [LONI A, Lonidamine, reference compound] | didn't show G-protein stimulation |  |  |  |  |  | neither LONI A nor its derivatives LONI B and LONI C could displace [^3H]WIN55212-2 | 
CCCCCn1cc(C(=O)c2cccc3ccccc23)c2ccccc21 [JWH-018, reference compound] |  | 163 ± 5.2% |  | 16 nM |  |  |  | 3.5 nM
COC(=O)[C@@H](NC(=O)c1nn(Cc2ccc(Cl)cc2Cl)c2ccccc12)C(C)C [LONI 5, (S)-methyl 2-(1-(2,4-dichlorobenzyl)-1H-indazole-3-carboxamido)-3-methylbutanoate] |  | 140 ± 3.7% | 1.8 nM |  |  |  |  | 
NC(=O)c1nn(Cc2ccc(Cl)cc2Cl)c2ccccc12 [LONI B, reference compound] | weak inverse agonist | 70 ± 8.7% |  | 2780 nM |  |  | neither LONI A nor its derivatives LONI B and LONI C could displace [^3H]WIN55212-2 | 
